How the values were obtained:
[1] = tested on: blackgrass; test: Test D pre-/postemergence herbicide test; type: in vivo, Alopecurus myosuroides; details: for Plant response rating: Blackgrass, scale 0 to 100; for Plant response rating, Blackgrass: scale 0 to 100 (0 no effect, 100 complete control)
In short: (§1)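 Seeds sown in silt loam were sprayed preemergence with test chemicals in a non-phytotoxic solvent mixture with surfactant. Postemergence plants grown in peat/vermiculite medium were treated at 2–18 cm (1- to 4-leaf stage). After 7 to 21 days in a controlled environment, injury was rated visually versus controls, 0 (no effect) to 100 (complete control).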

[2] = tested on: speedwell; test: Test D pre-/postemergence herbicide test; type: in vivo, Veronica persica; details: for Plant response rating: Postemergence, Speedwell, scale 0 to 100; for Plant response rating, Speedwell: Preemergence, scale 0 to 100 (0 no effect, 100 complete control)
In short: as §1

[3] = tested on: lambsquarters; test: Test D pre-/postemergence herbicide test; type: in vivo, Chenopodium album; details: for Plant response rating: Lambsquarters, scale 0 to 100; for Plant response rating, Lambsquarters: scale 0 to 100 (0 no effect, 100 complete control)
In short: as §1

[4] = tested on: bromegrass, downy; test: Test D pre-/postemergence herbicide test; type: in vivo, Bromus tectorum; details: for Plant response rating: Bromegrass, Downy, scale 0 to 100; for Plant response rating, Bromegrass, Downy: scale 0 to 100 (0 no effect, 100 complete control)
In short: as §1

[5] = tested on: crabgrass, large; test: Test E preemergence herbicide test; type: in vivo, Digitaria sanguinalis; parameters: key: 0 = no effect, 100 = complete control
Excerpt: (§2) Seeds of plant species selected from corn (Zea mays), soybean (Glycine max), velvetleaf (Abutilon theophrasti), lambsquarters (Chenopodium album), wild poinsettia (Euphorbia heterophylla), pigweed, palmer (palmer pigweed, Amaranthus palmeri), waterhemp (common waterhemp, Amaranthus rudis), surinam grass (Brachiaria decumbens), crabgrass, large (large crabgrass, Digitaria sanguinalis), crabgrass, Brazil (Brazilian crabgrass, Digitaria horizontalis), panicum, fall (fall panicum, Panicum dichotomiflorum), foxtail, giant (giant foxtail, Setaria faberii), foxtail, green (green foxtail, Setaria viridis), goosegrass (Eleusine indica), johnsongrass (Sorghum halepense), ragweed (common ragweed, Ambrosia elatior), barnyardgrass (Echinochloa crus-galli), sandbur (southern sandbur, Cenchrus echinatus), arrowleaf […] rhombifolia), ryegrass, Italian (Italian ryegrass, Lolium multiflorum), dayflower, VA (Virginia dayflower, Commelina virginica), field bindweed (Convolvulus arvensis), morningglory (Ipomoea coccinea), nightshade (eastern black nightshade, Solanum ptycanthum), kochia (Kochia scoparia), nutsedge, yellow (yellow nutsedge, Cyperus esculentus), cocklebur (common cocklebur, Xanthium strumarium), smartweed (ladysthumb smartweed, Polygonum Persicaria) and beggarticks (hairy beggarticks, Bidens pilosa), were planted into a silt loam soil and treated preemergence with test chemicals formulated in a non-phytotoxic solvent mixture which included a surfactant. Treated plants and controls were maintained in a greenhouse for 21 days, after which time all species were compared to controls and visually evaluated. Plant response ratings, summarized in Table E, are based on a scale of 0 to 100 where 0 is no effect and 100 is complete control. A dash (-) response means no test result.

[6] = tested on: waterhemp; test: Test E preemergence herbicide test; type: in vivo, Amaranthus rudis; parameters: key: 0 = no effect, 100 = complete control
Excerpt: as §2

[7] = tested on: foxtail, green; test: Test E preemergence herbicide test; type: in vivo, Setaria viridis; parameters: key: 0 = no effect, 100 = complete control
Excerpt: as §2

[8] = tested on: bluegrass; test: Test D pre-/postemergence herbicide test; type: in vivo, Poa annua; details: for Plant response rating: Bluegrass, scale 0 to 100; for Plant response rating, Bluegrass: scale 0 to 100 (0 no effect, 100 complete control)
In short: as §1

[9] = tested on: pigweed, palmer; test: Test E preemergence herbicide test; type: in vivo, Amaranthus palmeri; parameters: key: 0 = no effect, 100 = complete control
Excerpt: as §2

O=C1NCC(c2ccc(F)c(F)c2)C1C(=O)Nc1cccc(F)c1F (centres unmarked) [Compound 17, N-(2,3-difluorophenyl)-4-(3,4-difluorophenyl)-2-oxo-3-pyrrolidinecarboxamide]
Plant response rating ([1]; Postemergence, 16 g ai/ha): 0 | Plant response rating ([1]; Postemergence, 31 g ai/ha): 0 | Plant response rating ([1]; Postemergence, 62 g ai/ha): 0 | Plant response rating ([1]; Postemergence, 125 g ai/ha): 0 | Plant response rating ([1]; Postemergence, 250 g ai/ha): 0 | Plant response rating ([2]; 16 g ai/ha): 0 | Plant response rating ([2]; 31 g ai/ha): 0 | Plant response rating ([2]; 62 g ai/ha): 0 | Plant response rating ([2]; 125 g ai/ha): 0 | Plant response rating ([2]; 250 g ai/ha): 0 | Plant response rating ([3]; Postemergence, 16 g ai/ha): 0 | Plant response rating ([3]; Postemergence, 31 g ai/ha): 0 | Plant response rating ([3]; Postemergence, 62 g ai/ha): 0 | Plant response rating ([3]; Postemergence, 125 g ai/ha): 20 | Plant response rating ([3]; Postemergence, 250 g ai/ha): 40 | Plant response rating ([4]; Postemergence, 16 g ai/ha): 0 | Plant response rating ([4]; Postemergence, 31 g ai/ha): 0 | Plant response rating ([4]; Postemergence, 62 g ai/ha): 0 | Plant response rating ([4]; Postemergence, 125 g ai/ha): 0 | Plant response rating ([4]; Postemergence, 250 g ai/ha): 0 | Plant response rating, Crabgrass, Large ([5]; 16 g ai/ha): 15 | Plant response rating, Crabgrass, Large ([5]; 31 g ai/ha): 20 | Plant response rating, Crabgrass, Large ([5]; 62 g ai/ha): 70 | Plant response rating, Crabgrass, Large ([5]; 125 g ai/ha): 75 | Plant response rating, Crabgrass, Large ([5]; 250 g ai/ha): 95 | Plant response rating, Waterhemp ([6]; 16 g ai/ha): 0 | Plant response rating, Waterhemp ([6]; 31 g ai/ha): 0 | Plant response rating, Waterhemp ([6]; 62 g ai/ha): 0 | Plant response rating, Waterhemp ([6]; 125 g ai/ha): 0 | Plant response rating, Waterhemp ([6]; 250 g ai/ha): 0 | Plant response rating, Foxtail, Green ([7]; 16 g ai/ha): 0 | Plant response rating, Foxtail, Green ([7]; 31 g ai/ha): 25 | Plant response rating, Foxtail, Green ([7]; 62 g ai/ha): 40 | Plant response rating, Foxtail, Green ([7]; 125 g ai/ha): 70 | Plant response rating, Foxtail, Green ([7]; 250 g ai/ha): 95 | Plant response rating ([8]; Postemergence, 16 g ai/ha): 0 | Plant response rating ([8]; Postemergence, 31 g ai/ha): 0 | Plant response rating ([8]; Postemergence, 62 g ai/ha): 0 | Plant response rating ([8]; Postemergence, 125 g ai/ha): 0 | Plant response rating ([8]; Postemergence, 250 g ai/ha): 0 | Plant response rating, Pigweed, Palmer ([9]; 16 g ai/ha): 0 | Plant response rating, Pigweed, Palmer ([9]; 31 g ai/ha): 0 | Plant response rating, Pigweed, Palmer ([9]; 62 g ai/ha): 0 | Plant response rating, Pigweed, Palmer ([9]; 125 g ai/ha): 0 | Plant response rating, Pigweed, Palmer ([9]; 250 g ai/ha): 0

O=C1NCC(c2ccc(C(F)(F)F)cc2)C1C(=O)Nc1cccc(F)c1F (centres unmarked) [Compound 80, N-(2,3-difluorophenyl)-2-oxo-4-[4-(trifluoromethyl)phenyl]-3-pyrrolidinecarboxamide]
Plant response rating ([1]; Postemergence, 31 g ai/ha): 5 | Plant response rating ([1]; Postemergence, 62 g ai/ha): 5 | Plant response rating ([1]; Postemergence, 125 g ai/ha): 5 | Plant response rating ([1]; Postemergence, 250 g ai/ha): 5 | Plant response rating, Blackgrass ([1]; Preemergence, 62 g ai/ha): 10 | Plant response rating, Blackgrass ([1]; Preemergence, 31 g ai/ha): 5 | Plant response rating ([1]; Preemergence, 125 g ai/ha): 20 | Plant response rating ([1]; Preemergence, 250 g ai/ha): 25 | Plant response rating ([2]; 31 g ai/ha): 60 | Plant response rating ([2]; 62 g ai/ha): 70 | Plant response rating ([2]; 125 g ai/ha): 70 | Plant response rating ([2]; 250 g ai/ha): 65 | Plant response rating, Speedwell ([2]; 62 g ai/ha): 85 | Plant response rating, Speedwell ([2]; 125 g ai/ha): 85 | Plant response rating, Speedwell ([2]; 31 g ai/ha): 10 | Plant response rating, Speedwell ([2]; 250 g ai/ha): 100 | Plant response rating ([3]; Postemergence, 31 g ai/ha): 45 | Plant response rating ([3]; Postemergence, 62 g ai/ha): 45 | Plant response rating ([3]; Postemergence, 125 g ai/ha): 40 | Plant response rating ([3]; Postemergence, 250 g ai/ha): 35 | Plant response rating, Lambsquarters ([3]; Preemergence, 62 g ai/ha): 80 | Plant response rating, Lambsquarters ([3]; Preemergence, 31 g ai/ha): 85 | Plant response rating ([3]; Preemergence, 125 g ai/ha): 90 | Plant response rating ([3]; Preemergence, 250 g ai/ha): 90 | Plant response rating ([4]; Postemergence, 31 g ai/ha): 15 | Plant response rating ([4]; Postemergence, 62 g ai/ha): 15 | Plant response rating ([4]; Postemergence, 125 g ai/ha): 20 | Plant response rating ([4]; Postemergence, 250 g ai/ha): 20 | Plant response rating, Bromegrass, Downy ([4]; Preemergence, 62 g ai/ha): 5 | Plant response rating, Bromegrass, Downy ([4]; Preemergence, 31 g ai/ha): 0 | Plant response rating ([4]; Preemergence, 125 g ai/ha): 5 | Plant response rating ([4]; Preemergence, 250 g ai/ha): 10 | Plant response rating, Crabgrass, Large ([5]; 16 g ai/ha): 50 | Plant response rating, Crabgrass, Large ([5]; 31 g ai/ha): 90 | Plant response rating, Crabgrass, Large ([5]; 62 g ai/ha): 95 | Plant response rating, Crabgrass, Large ([5]; 125 g ai/ha): 95 | Plant response rating, Crabgrass, Large ([5]; 250 g ai/ha): 95 | Plant response rating, Waterhemp ([6]; 16 g ai/ha): 0 | Plant response rating, Waterhemp ([6]; 31 g ai/ha): 20 | Plant response rating, Waterhemp ([6]; 62 g ai/ha): 30 | Plant response rating, Waterhemp ([6]; 125 g ai/ha): 50 | Plant response rating, Waterhemp ([6]; 250 g ai/ha): 60 | Plant response rating, Foxtail, Green ([7]; 16 g ai/ha): 50 | Plant response rating, Foxtail, Green ([7]; 31 g ai/ha): 60 | Plant response rating, Foxtail, Green ([7]; 62 g ai/ha): 70 | Plant response rating, Foxtail, Green ([7]; 125 g ai/ha): 80 | Plant response rating, Foxtail, Green ([7]; 250 g ai/ha): 90 | Plant response rating ([8]; Postemergence, 31 g ai/ha): 5 | Plant response rating ([8]; Postemergence, 62 g ai/ha): 10 | Plant response rating ([8]; Postemergence, 125 g ai/ha): 15 | Plant response rating ([8]; Postemergence, 250 g ai/ha): 10 | Plant response rating, Bluegrass ([8]; Preemergence, 62 g ai/ha): 10 | Plant response rating, Bluegrass ([8]; Preemergence, 31 g ai/ha): 0 | Plant response rating ([8]; Preemergence, 125 g ai/ha): 20 | Plant response rating ([8]; Preemergence, 250 g ai/ha): 45 | Plant response rating, Pigweed, Palmer ([9]; 16 g ai/ha): 0 | Plant response rating, Pigweed, Palmer ([9]; 31 g ai/ha): 0 | Plant response rating, Pigweed, Palmer ([9]; 125 g ai/ha): 65 | Plant response rating, Pigweed, Palmer ([9]; 250 g ai/ha): 90

O=C1NC[C@H](c2cccc(C(F)(F)F)c2)[C@H]1C(=O)Nc1ccccc1F [Compound 204, (3R,4S)—N-(2-fluorophenyl)-2-oxo-4-[3-(trifluoromethyl)phenyl]-3-pyrrolidinecarboxamide]
Plant response rating, Blackgrass ([1]; Preemergence, 62 g ai/ha): 10 | Plant response rating, Blackgrass ([1]; Preemergence, 125 g ai/ha): 40 | Plant response rating, Blackgrass ([1]; Preemergence, 31 g ai/ha): 5 | Plant response rating ([1]; Preemergence, 250 g ai/ha): 65 | Plant response rating, Speedwell ([2]; 62 g ai/ha): 10 | Plant response rating, Speedwell ([2]; 125 g ai/ha): 10 | Plant response rating, Speedwell ([2]; 31 g ai/ha): 0 | Plant response rating, Speedwell ([2]; 250 g ai/ha): 70 | Plant response rating, Lambsquarters ([3]; Preemergence, 62 g ai/ha): 30 | Plant response rating, Lambsquarters ([3]; Preemergence, 125 g ai/ha): 65 | Plant response rating, Lambsquarters ([3]; Preemergence, 31 g ai/ha): 35 | Plant response rating ([3]; Preemergence, 250 g ai/ha): 90 | Plant response rating, Bromegrass, Downy ([4]; Preemergence, 62 g ai/ha): 20 | Plant response rating, Bromegrass, Downy ([4]; Preemergence, 125 g ai/ha): 35 | Plant response rating, Bromegrass, Downy ([4]; Preemergence, 31 g ai/ha): 0 | Plant response rating ([4]; Preemergence, 250 g ai/ha): 45 | Plant response rating, Crabgrass, Large ([5]; 31 g ai/ha): 95 | Plant response rating, Crabgrass, Large ([5]; 62 g ai/ha): 98 | Plant response rating, Crabgrass, Large ([5]; 125 g ai/ha): 98 | Plant response rating, Crabgrass, Large ([5]; 250 g ai/ha): 98 | Plant response rating, Waterhemp ([6]; 31 g ai/ha): 0 | Plant response rating, Waterhemp ([6]; 62 g ai/ha): 0 | Plant response rating, Waterhemp ([6]; 125 g ai/ha): 0 | Plant response rating, Waterhemp ([6]; 250 g ai/ha): 0 | Plant response rating, Foxtail, Green ([7]; 31 g ai/ha): 40 | Plant response rating, Foxtail, Green ([7]; 62 g ai/ha): 98 | Plant response rating, Foxtail, Green ([7]; 125 g ai/ha): 95 | Plant response rating, Foxtail, Green ([7]; 250 g ai/ha): 98 | Plant response rating, Bluegrass ([8]; Preemergence, 62 g ai/ha): 0 | Plant response rating, Bluegrass ([8]; Preemergence, 125 g ai/ha): 15 | Plant response rating, Bluegrass ([8]; Preemergence, 31 g ai/ha): 0 | Plant response rating ([8]; Preemergence, 250 g ai/ha): 35 | Plant response rating, Pigweed, Palmer ([9]; 31 g ai/ha): 0 | Plant response rating, Pigweed, Palmer ([9]; 62 g ai/ha): 0 | Plant response rating, Pigweed, Palmer ([9]; 125 g ai/ha): 0 | Plant response rating, Pigweed, Palmer ([9]; 250 g ai/ha): 0
